Results from PubChem BioAssay AID256 (DTP/NCI, 2004).
Where “and” joins values, the source holds several entries; their conditions need not be identical. Identical values can stand only once. Toxic doses and inconclusive results are not listed. How the source made its calls: active means survival T/C of 150% or more; inactive means T/C below 125% in these data.

System: CD2F1 mice, L1210 leukemia ip, survival T/C
Assay: NCI In Vivo Anticancer Drug Screen. Data for tumor model L1210 Leukemia (intraperitoneal) in CD2F1 (CDF1) mice
Details: higher = longer survival
Outline: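 Ratio T/C, where T is the treated-group value and C the vehicle-dosed control value, from mice implanted with a transplantable tumor.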

Measured: T/C

CC1CCC(NC(=O)N(CCCl)N=O)CC1 (stereo not given)
256 % of control and 103 % of control: endpoint: mean survival time, dose: 32.0 mg/kg/injection, schedule: Q01DX009 (ip), vehicle: saline + alcohol
active: endpoint: mean survival time, dose: 4.0 mg/kg/injection, schedule: Q01DX009 (ip), vehicle: saline + alcohol 151 % of control and 185 % of control | endpoint: mean survival time, dose: 5.0 mg/kg/injection, schedule: Q04DX003 (ip), vehicle: other 192 % of control | endpoint: mean survival time, dose: 8.0 mg/kg/injection, schedule: Q01DX009 (ip), vehicle: saline + alcohol 175 % of control and 229 % of control | endpoint: mean survival time, dose: 8.0 mg/kg/injection, schedule: Q08DX002 (ip), vehicle: saline + alcohol 206 % of control | endpoint: mean survival time, dose: 10.0 mg/kg/injection, schedule: Q04DX003 (ip), vehicle: other 371 % of control | endpoint: mean survival time, dose: 12.5 mg/kg/injection, schedule: Q01DX001 (ip), vehicle: distilled water + Tween-80 340 % of control | endpoint: mean survival time, dose: 16.0 mg/kg/injection, schedule: Q01DX001 (ip), vehicle: other 283 % of control | endpoint: mean survival time, dose: 16.0 mg/kg/injection, schedule: Q01DX009 (ip), vehicle: saline + alcohol 207 % of control | endpoint: mean survival time, dose: 16.0 mg/kg/injection, schedule: Q08DX002 (ip), vehicle: saline + alcohol 289 % of control | endpoint: mean survival time, dose: 20.0 mg/kg/injection, schedule: Q04DX003 (ip), vehicle: other 392 % of control | endpoint: mean survival time, dose: 24.0 mg/kg/injection, schedule: Q08DX002 (ip), vehicle: saline + alcohol 550 % of control | endpoint: mean survival time, dose: 25.0 mg/kg/injection, schedule: Q01DX001 (ip), vehicle: distilled water + Tween-80 406 % of control | endpoint: mean survival time, dose: 25.0 mg/kg/injection, schedule: Q01DX001 (ip), vehicle: saline with Tween-80 393 % of control | endpoint: mean survival time, dose: 27.0 mg/kg/injection, schedule: Q01DX001 (ip), vehicle: saline with Tween-80 813 % of control | endpoint: mean survival time, dose: 32.0 mg/kg/injection, schedule: Q01DX001 (ip), vehicle: other 357 % of control | endpoint: mean survival time, dose: 32.0 mg/kg/injection, schedule: Q01DX001 (ip), vehicle: saline + alcohol 451 % of control | endpoint: mean survival time, dose: 40.0 mg/kg/injection, schedule: Q01DX001 (ip), vehicle: saline with Tween-80 555 % of control | endpoint: mean survival time, dose: 50.0 mg/kg/injection, schedule: Q01DX001 (ip), vehicle: saline + alcohol 158 % of control | endpoint: mean survival time, dose: 50.0 mg/kg/injection, schedule: Q01DX001 (ip), vehicle: saline with Tween-80 213 % of control and 473 % of control | endpoint: mean survival time, dose: 64.0 mg/kg/injection, schedule: Q01DX001 (ip), vehicle: other 204 % of control | endpoint: median survival time, dose: 6.25 mg/kg/injection, schedule: Q01DX001 (ip), vehicle: other 158 % of control | endpoint: median survival time, dose: 9.0 mg/kg/injection, schedule: Q04DX002 (ip), vehicle: saline + Tween-80 + alcohol 180 % of control | endpoint: median survival time, dose: 12.5 mg/kg/injection, schedule: Q01DX001 (ip), vehicle: other 159 % of control and 297 % of control | endpoint: median survival time, dose: 14.4 mg/kg/injection, schedule: Q01DX001 (ip), vehicle: saline + alcohol 718 % of control | endpoint: median survival time, dose: 14.4 mg/kg/injection, schedule: Q04DX002 (ip), vehicle: saline + alcohol 622 % of control | endpoint: median survival time, dose: 15.0 mg/kg/injection, schedule: Q04DX002 (ip), vehicle: saline + Tween-80 + alcohol 351 % of control | endpoint: median survival time, dose: 24.0 mg/kg/injection, schedule: Q01DX001 (ip), vehicle: other 581 % of control | endpoint: median survival time, dose: 24.0 mg/kg/injection, schedule: Q01DX001 (ip), vehicle: saline + alcohol 718 % of control | endpoint: median survival time, dose: 24.0 mg/kg/injection, schedule: Q04DX002 (ip), vehicle: saline + alcohol 623 % of control | endpoint: median survival time, dose: 25.0 mg/kg/injection, schedule: Q01DX001 (ip), vehicle: other 297 % of control and 340 % of control | endpoint: median survival time, dose: 25.0 mg/kg/injection, schedule: Q04DX002 (ip), vehicle: saline + Tween-80 + alcohol 244 % of control | endpoint: median survival time, dose: 36.0 mg/kg/injection, schedule: Q01DX001 (ip), vehicle: other 580 % of control | endpoint: median survival time, dose: 40.0 mg/kg/injection, schedule: Q01DX001 (ip), vehicle: saline + alcohol 720 % of control | endpoint: median survival time, dose: 40.0 mg/kg/injection, schedule: Q01DX001 (ip), vehicle: saline with Tween-80 157 % of control | endpoint: median survival time, dose: 40.0 mg/kg/injection, schedule: Q01DX001 (oral), vehicle: saline with Tween-80 393 % of control and 590 % of control and 983 % of control | endpoint: median survival time, dose: 40.0 mg/kg/injection, schedule: Q04DX002 (ip), vehicle: saline + alcohol 286 % of control | endpoint: median survival time, dose: 42.0 mg/kg/injection, schedule: Q04DX002 (ip), vehicle: saline + Tween-80 + alcohol 170 % of control | endpoint: median survival time, dose: 50.0 mg/kg/injection, schedule: Q01DX001 (ip), vehicle: other 158 % of control and 193 % of control | endpoint: median survival time, dose: 50.0 mg/kg/injection, schedule: Q01DX001 (oral), vehicle: saline with Tween-80 193 % of control and 983 % of control (2×) | endpoint: median survival time, dose: 60.0 mg/kg/injection, schedule: Q01DX001 (oral), vehicle: saline with Tween-80 185 % of control and 983 % of control (2×) | endpoint: median survival time, dose: 66.7 mg/kg/injection, schedule: Q01DX001 (ip), vehicle: saline + alcohol 328 % of control | endpoint: median survival time, dose: 66.7 mg/kg/injection, schedule: Q01DX001 (ip), vehicle: saline with Tween-80 463 % of control
inactive: endpoint: mean survival time, dose: 0.5 mg/kg/injection, schedule: Q01DX009 (ip), vehicle: saline + alcohol 96 % of control | endpoint: mean survival time, dose: 1.0 mg/kg/injection, schedule: Q01DX009 (ip), vehicle: saline + alcohol 109 % of control | endpoint: mean survival time, dose: 2.0 mg/kg/injection, schedule: Q01DX009 (ip), vehicle: saline + alcohol 109 % of control | endpoint: mean survival time, dose: 3.12 mg/kg/injection, schedule: Q01DX001 (ip), vehicle: other 105 % of control and 110 % of control | endpoint: mean survival time, dose: 3.13 mg/kg/injection, schedule: Q01DX001 (ip), vehicle: saline with Tween-80 103 % of control | endpoint: mean survival time, dose: 4.0 mg/kg/injection, schedule: Q01DX001 (ip), vehicle: other 107 % of control | endpoint: mean survival time, dose: 4.0 mg/kg/injection, schedule: Q01DX001 (ip), vehicle: saline + alcohol 104 % of control | endpoint: mean survival time, dose: 6.25 mg/kg/injection, schedule: Q01DX001 (ip), vehicle: saline + alcohol 98 % of control | endpoint: mean survival time, dose: 6.25 mg/kg/injection, schedule: Q01DX001 (ip), vehicle: saline with Tween-80 114 % of control | endpoint: mean survival time, dose: 12.5 mg/kg/injection, schedule: Q01DX001 (ip), vehicle: saline + alcohol 104 % of control | endpoint: mean survival time, dose: 16.0 mg/kg/injection, schedule: Q01DX001 (ip), vehicle: saline + alcohol 120 % of control | endpoint: mean survival time, dose: 24.0 mg/kg/injection, schedule: Q01DX009 (ip), vehicle: saline + alcohol 107 % of control | endpoint: mean survival time, dose: 25.0 mg/kg/injection, schedule: Q01DX001 (ip), vehicle: saline + alcohol 95 % of control | endpoint: mean survival time, dose: 48.0 mg/kg/injection, schedule: Q01DX009 (ip), vehicle: saline + alcohol 96 % of control | endpoint: mean survival time, dose: 64.0 mg/kg/injection, schedule: Q01DX009 (ip), vehicle: saline + alcohol 86 % of control | endpoint: median survival time, dose: 3.12 mg/kg/injection, schedule: Q01DX001 (ip), vehicle: other 121 % of control and 110 % of control | endpoint: median survival time, dose: 3.12 mg/kg/injection, schedule: Q01DX001 (ip), vehicle: saline 98 % of control and 101 % of control | endpoint: median survival time, dose: 6.25 mg/kg/injection, schedule: Q01DX001 (ip), vehicle: saline 98 % of control and 103 % of control | endpoint: median survival time, dose: 12.5 mg/kg/injection, schedule: Q01DX001 (ip), vehicle: saline 103 % of control | endpoint: median survival time, dose: 14.4 mg/kg/injection, schedule: Q01DX001 (ip), vehicle: saline with Tween-80 121 % of control | endpoint: median survival time, dose: 60.0 mg/kg/injection, schedule: Q01DX001 (ip), vehicle: other 119 % of control | endpoint: median survival time, dose: 100.0 mg/kg/injection, schedule: Q01DX001 (ip), vehicle: other 116 % of control
